Measurements from the C3SDB collision cross section collection.

How the values were obtained:
[1] = instrument: DT, stepped-field
[2] = instrument: TW, calibrated with phosphatidylcholines (ESI+) and phosphatidylethanolamines (ESI-)
[3] = instrument: DT, single field, calibrated with Agilent tune mix (Agilent)

Structure (SMILES) | collision cross section (N2) ([2]; [M+H]+) | collision cross section (N2) ([2]; [M-H]-) | collision cross section (N2) ([3]; [M-H]-) | collision cross section (N2) ([2]; [M+Na]+) | collision cross section (N2) ([3]; [M+H]+) | further results
CC/C=C\C/C=C\C/C=C\C/C=C\CCCCC(=O)OC[C@H](COP(=O)(O)OCCN)OC(=O)CCCCCCCCC/C=C\C/C=C\CCCCC [PE(38:6)] | 275.7 Å² | 269.2 Å² | 269.8 Å² | – | – | collision cross section (N2) ([1]; [M+K]+): 288.7 Å²; collision cross section (N2) ([1]; [M+Na]+): 285 Å²; collision cross section (N2) ([3]; [M+Na]+): 283.6 Å²
CCCC/C=C\CCCCCCCC(=O)OC[C@H](COP(=O)(O)O[C@H]1C(O)C(O)C(O)[C@@H](O)C1O)OC(=O)CCCCCCCCC/C=C\CCCCCCCCCC (stereo partly specified) [PI(36:2)] | – | 288.7 Å² | 289.3 Å² | 293.3 Å² | 299.3 Å² | collision cross section (N2) ([3]; [M+Na]+): 297.6 Å²
CC/C=C\C/C=C\C/C=C\CCCCCCCC(=O)O[C@H](CO/C=C\CCCCCCCCCCCCCCCC)COP(=O)(O)OCCN [PE(p36:3)] | – | 265.2 Å² | 265.6 Å² | – | – | –
CCCCC/C=C\C/C=C\C/C=C\CCCCCCC(=O)O[C@H](COC(=O)CCCCCCC/C=C\CCCCCC)COP(=O)(O)OCCN [PE(36:4)] | – | 265.7 Å² | 265.2 Å² | – | – | collision cross section (N2) ([1]; [M+Na]+): 280.6 Å²; collision cross section (N2) ([3]; [M+Na]+): 281.2 Å²
CC/C=C\C/C=C\C/C=C\C/C=C\CCCCC(=O)OC[C@H](COP(=O)(O)O[C@H]1C(O)C(O)C(O)[C@@H](O)C1O)OC(=O)CCCCCCCCC/C=C\CCCCCCCCCC (stereo partly specified) [PI(40:5)] | – | 296.5 Å² | 297.7 Å² | 301.1 Å² | 307.1 Å² | collision cross section (N2) ([3]; [M+NH4]+): 308.6 Å²; collision cross section (N2) ([3]; [M+Na]+): 305.8 Å²
CCCCC/C=C\C/C=C\C/C=C\C/C=C\CCCCCC(=O)O[C@H](COC(=O)CCCC/C=C\C/C=C\C/C=C\CCCCC)COP(=O)([O-])OCC[N+](C)(C)C [PC(40:7)] | 293.2 Å² | – | – | – | 293.6 Å² | –
CC/C=C\C/C=C\C/C=C\C/C=C\CCCCC(=O)O[C@H](COC(=O)CCCCCC/C=C\C/C=C\C/C=C\CCCCC)COP(=O)([O-])OCC[N+](C)(C)C [PC(38:7)] | 286.5 Å² | – | – | – | 288.2 Å² | –
CCCCC/C=C\C/C=C\C/C=C\CCCCC(=O)O[C@H](COC(=O)CCCCCCCCC/C=C\CCCCCCCC)COP(=O)(O)O [PA(38:4)] | – | 263.4 Å² | 264.3 Å² | – | – | collision cross section (N2) ([3]; [M+NH4]+): 279.1 Å²
CCCCC/C=C\C/C=C\C/C=C\C/C=C\CCCCCC(=O)O[C@H](COC(=O)CCCCCCCCCCCCC)COP(=O)(O)O [PA(36:4)] | – | 257.1 Å² | 258.1 Å² | – | – | collision cross section (N2) ([3]; [M+NH4]+): 272.4 Å²
CCCCC/C=C\C/C=C\C/C=C\C/C=C\CCCCCC(=O)O[C@H](COC(=O)CCCCCCC/C=C\CCCCCCCC)COP(=O)([O-])OCC[N+](C)(C)C [PC(40:5)] | 295.5 Å² | – | – | – | 298.8 Å² | collision cross section (N2) ([3]; [M+Na]+): 302 Å²
CCCCC/C=C\C/C=C\CCCCCCCCCC(=O)O[C@H](COC(=O)CCCCCCCCC/C=C\CCCCCC)COP(=O)([O-])OCC[N+](C)(C)C [PC(38:3)] | 291.9 Å² | – | – | – | 295 Å² | collision cross section (N2) ([2]; [M+CH3COO]-): 296.7 Å²
CCCCC/C=C\C/C=C\C/C=C\CCCCC(=O)OC[C@H](COP(=O)([O-])OCC[N+](C)(C)C)OC(=O)CCCCCCCCC/C=C\C/C=C\CCCCC [PC(38:5)] | 289.7 Å² | – | – | – | 292.9 Å² | collision cross section (N2) ([2]; [M+CH3COO]-): 295.4 Å²; collision cross section (N2) ([3]; [M+HCOO]-): 293 Å²; collision cross section (N2) ([3]; [M+Na]+): 296.8 Å²
CC/C=C\C/C=C\C/C=C\C/C=C\C/C=C\CCCC(=O)O[C@H](CO/C=C\CCCCCCCCCCCCCCCCCC)COP(=O)(O)OCCN [PE(p40:5)] | 284.7 Å² | 274.8 Å² | 276.1 Å² | – | – | –
CCCCCCCCCCCCC=CC[C@@H](O)[C@H](CO[C@@H]1O[C@H](CO)[C@@H](O)C(O)C1O)NC(=O)CCCCCCCCCCCCCCCCCCCCCCC (stereo partly specified) [GlcCer(d18:1/24:0)] | 299.7 Å² | – | – | 299.1 Å² | – | –
CCCCCCCCCCCCC=CC[C@@H](O)[C@H](CO[C@@H]1O[C@H](CO)[C@@H](O)C(O)C1O)NC(=O)CC=CCCCCCCCCCCCCCCCCCCCCCC (stereo partly specified) [GlcCer(d18:1/26:1)] | 304.5 Å² | – | – | 304.7 Å² | – | –
CCCCCCCCCCCCC=CC[C@@H](O)[C@H](CO)NC(=O)CCCCCCCCCCCCCCCCCCCCC [Cer(d18:1/22:0)] | 271.8 Å² | 262 Å² | – | – | – | –
CC/C=C\C/C=C\C/C=C\C/C=C\C/C=C\C/C=C\CCC(=O)O[C@H](COC(=O)CCCCCCCCCCCCCCCCC)COP(=O)(O)O[C@H]1C(O)C(O)C(O)[C@@H](O)C1O (stereo partly specified) [PI(40:6)] | – | – | 296.4 Å² | 299.8 Å² | – | collision cross section (N2) ([3]; [M+NH4]+): 306.1 Å²
CCCCCCCCCCCCCC(=O)OC[C@@H](O)COP(=O)([O-])OCC[N+](C)(C)C [LPC(14:0)] | 220.8 Å² | – | – | – | – | collision cross section (N2) ([3]; [M+HCOO]-): 227 Å²
CCCCCCCCCCCCC=CC[C@@H](O)[C@H](CO)NC(=O)CC=CCCCCCCCCCCCCCCCCCCCC [Cer(d18:1/24:1)] | 276.8 Å² | 266.4 Å² | – | – | – | –
CCCCC/C=C\C/C=C\C/C=C\C/C=C\C/C=C\CCC(=O)O[C@H](COC(=O)CCCCCCCCCCCCC)COP(=O)([O-])OCC[N+](C)(C)C [PC(36:5)] | 284.1 Å² | – | – | – | 284.5 Å² | –
CCCCCCCCCCCCCCCC(=O)O[C@H](CO)COP(=O)(O)OCCN [LPE(16:0)] | 213.4 Å² | 206 Å² | 207.1 Å² | 218.8 Å² | 213.7 Å² | collision cross section (N2) ([3]; [M+Na]+): 219.9 Å²
CCCCCCCCCCCCC=CC[C@@H](O)[C@H](CO[C@@H]1O[C@H](CO)[C@@H](O)C(O)C1O)NC(=O)CC=CCCCCCCCCCCCCCCCCCC (stereo partly specified) [GlcCer(d18:1/22:1)] | 293.1 Å² | – | – | 290.1 Å² | – | –
CCCCC/C=C\C/C=C\C/C=C\CCCCCCC(=O)O[C@H](COC(=O)CCCC/C=C\C/C=C\C/C=C\CCCCC)COP(=O)(O)O[C@H]1C(O)C(O)C(O)[C@@H](O)C1O (stereo partly specified) [PI(38:6)] | – | – | – | 292.4 Å² | – | –
CC/C=C\C/C=C\C/C=C\C/C=C\C/C=C\C/C=C\CCC(=O)O[C@H](CO/C=C\CCCCCCCCCCCCCC)COP(=O)(O)OCCN [PE(p38:6)] | 276.9 Å² | 268.1 Å² | – | – | 278 Å² | –
CCCC/C=C\C/C=C\CCCCCCCC(=O)O[C@H](COC(=O)CCCCCCC/C=C\CCCCCCCCC)COP(=O)(O)O [PA(36:3)] | – | 257.9 Å² | – | – | – | collision cross section (N2) ([3]; [M+NH4]+): 270.8 Å²
